Experimental data as given in patent US12559492B2, “BRAF degraders” (C4 Therapeutics, Inc., priority 2020, dated 2026).

Biological target: BRAF^V600E protein (Homo sapiens, UniProt P15056, V600E)
Experiment: HiBiT cellular BRAF V600E degradation assay
Type: cell-based
Conditions: 24 h incubation; for DC50: A375.10 cells (HiBiT tag knocked in at N-terminal of BRAF V600E), concentration at which 50% of total cellular BRAF V600E is degraded; for Emax / HiBit 24 h Emax: A375.10 cells, Emax = amount of residual protein remaining in the cell after compound treatment; for Emax: read-out: HiBit 24 h Emax
From the text: DMEM no-phenol red medium supplemented with L-glutamine was purchased from (Corning). Fetal bovine serum (FBS) was purchased from Gibco (Grand Island, NY, USA). Nano-Glo® HiBiT Lytic Assay Buffer & Reagents were purchased from Promega (Madison, WI, USA). […] Cell culture flasks and 384-well black flat-bottom polystyrene TC-treated microplates were acquired from Corning (Corning, NY, USA).
HiBiT Cellular BRAFv^600E Degradation Assay
Prior to the assay, the A375.10 cell line is maintained in DMEM no-phenol red medium supplemented with 10% fetal bovine serum (FBS). […] Briefly, test compounds were added to the 384-well plate from a top concentration of 10 μM with 11 half log dilutions of compound, plated in duplicate. Then, 30 uL of a suspension of A375.10 cell lines was dispensed into columns 1-24 of the 384-well plates at a cell density of 7500 cells per well. The plates were kept at 37° C. with 5% CO2 for the duration of the assay (6 or 24 hr). After the desired incubation time with compound, 30 uL of Nano-Glo® HiBiT Lytic Buffer containing LgBiT protein (diluted 1:100) and luminescence substrate (diluted 1:50) were added to the cells in columns 1-23 of the assay plate. The plate was the incubated for 30 min on the bench at room temperature. Finally, HiBiT luminescence signal was acquired on EnVision™ Multilabel Reader (PerkinElmer, Santa Clara, CA, USA).
Quantification of luminescence responses measured in the presence of compound were normalized to a high signal/no degradation control (untreated cells+lytic detection reagent) and a low signal/full degradation control (untreated cells, no lytic detection reagent). Data were analyzed with a 4-parameter logistic fit to generate sigmoidal dose-response curves. […] The Emax, or maximum effect of each compound, represents the amount of residual protein remaining in the cell following compound treatment.

Sequence of BRAF^V600E protein (P15056 whole entry V600E): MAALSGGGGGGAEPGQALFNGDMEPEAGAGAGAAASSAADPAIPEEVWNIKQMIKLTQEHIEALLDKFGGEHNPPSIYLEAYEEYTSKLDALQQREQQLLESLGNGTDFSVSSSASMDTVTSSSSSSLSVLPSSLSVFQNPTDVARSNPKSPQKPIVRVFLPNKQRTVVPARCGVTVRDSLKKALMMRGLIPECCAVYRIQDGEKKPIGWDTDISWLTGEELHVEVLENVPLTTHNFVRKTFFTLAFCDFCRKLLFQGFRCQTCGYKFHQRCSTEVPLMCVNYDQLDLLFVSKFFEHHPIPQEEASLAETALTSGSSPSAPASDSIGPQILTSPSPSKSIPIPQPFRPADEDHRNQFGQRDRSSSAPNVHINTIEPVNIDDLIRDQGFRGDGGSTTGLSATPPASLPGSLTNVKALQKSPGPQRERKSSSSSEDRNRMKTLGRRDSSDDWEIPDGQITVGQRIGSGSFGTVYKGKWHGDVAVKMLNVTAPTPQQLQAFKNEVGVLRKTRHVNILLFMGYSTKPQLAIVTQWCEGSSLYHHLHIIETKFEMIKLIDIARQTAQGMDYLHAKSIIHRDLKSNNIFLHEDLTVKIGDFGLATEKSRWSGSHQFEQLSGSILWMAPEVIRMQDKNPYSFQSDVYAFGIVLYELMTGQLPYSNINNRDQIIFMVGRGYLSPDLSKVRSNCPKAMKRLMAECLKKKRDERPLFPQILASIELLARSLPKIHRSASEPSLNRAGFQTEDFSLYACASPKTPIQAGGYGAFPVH

Compound	DC50 [nM]	Emax [%]	HiBit 24 h Emax [%]
CC(C)S(=O)(=O)Nc1ccc(F)c(C(=O)c2c[nH]c3ncc(-c4cnc(N5CCN(C(=O)CN6CCC(c7ccc(C8CCC(=O)NC8=O)cc7F)CC6)CC5)nc4)cc23)c1F (centres unmarked) [Example 9, N-[3-[5-[2-[4-[2-[4-[4-(2,6-dioxo-3-piperidyl)-2-fluoro-phenyl]-1-piperidyl]acetyl]piperazin-1-yl]pyrimidin-5-yl]-1H-pyrrolo[2,3-b]pyridine-3-carbonyl]-2,4-difluoro-phenyl]propane-2-sulfonamide]	10.7	3.41	–
CC(C)S(=O)(=O)Nc1ccc(F)c(C(=O)c2c[nH]c3ncc(-c4ccc(N5CCN(C(=O)CN6CCC(c7ccc(NC8CCC(=O)NC8=O)cc7)CC6)CC5)nc4)cc23)c1F (centres unmarked) [Example 11, N-[3-[5-[6-[4-[2-[4-[4-[(2,6-dioxo-3-piperidyl)amino]phenyl]-1-piperidyl]acetyl]piperazin-1-yl]-3-pyridyl]-1H-pyrrolo[2,3-b]pyridine-3-carbonyl]-2,4-difluoro-phenyl]propane-2-sulfonamide]	5.08	7.97	–
CC(C)S(=O)(=O)Nc1ccc(F)c(C(=O)c2c[nH]c3ncc(-c4ccc(N5CCN(C(=O)CN6CCC(c7ccc(NC8CCC(=O)NC8=O)cc7F)CC6)CC5)nc4)cc23)c1F (centres unmarked) [Example 12, N-[3-[5-[6-[4-[2-[4-[4-[(2,6-dioxo-3-piperidyl)amino]-2-fluoro-phenyl]-1-piperidyl]acetyl]piperazin-1-yl]-3-pyridyl]-1H-pyrrolo[2,3-b]pyridine-3-carbonyl]-2,4-difluoro-phenyl]propane-2-sulfonamide]	9.73	8.03	–
CC(C)S(=O)(=O)Nc1ccc(F)c(C(=O)c2c[nH]c3ncc(-c4ccc(N5CCN(C(=O)CN6CCC(c7ccc(OC8CCC(=O)NC8=O)cc7)CC6)CC5)nc4)cc23)c1F (centres unmarked) [Example 13, N-[3-[5-[6-[4-[2-[4-[4-[(2,6-dioxo-3-piperidyl)oxy]phenyl]-1-piperidyl]acetyl]piperazin-1-yl]-3-pyridyl]-1H-pyrrolo[2,3-b]pyridine-3-carbonyl]-2,4-difluoro-phenyl]propane-2-sulfonamide]	20.9	9.56	–
CC(C)S(=O)(=O)Nc1ccc(F)c(C(=O)c2c[nH]c3ncc(-c4ccc(N5CCN(C(=O)CN6CCC(c7ccc(C8CCC(=O)NC8=O)cc7)CC6)CC5)nc4)cc23)c1F (centres unmarked) [Example 14, N-[3-[5-[6-[4-[2-[4-[4-(2,6-dioxo-3-piperidyl)phenyl]-1-piperidyl]acetyl]piperazin-1-yl]-3-pyridyl]-1H-pyrrolo[2,3-b]pyridine-3-carbonyl]-2,4-difluoro-phenyl]propane-2-sulfonamide]	8.56	3.41	–
CC(C)S(=O)(=O)Nc1ccc(F)c(C(=O)c2c[nH]c3ncc(-c4ccc(N5CCN(C(=O)CN6CCC(c7ccc(C8CCC(=O)NC8=O)cc7F)CC6)CC5)nc4)cc23)c1F (centres unmarked) [Example 15, N-[3-[5-[6-[4-[2-[4-[4-(2,6-dioxo-3-piperidyl)-2-fluoro-phenyl]-1-piperidyl]acetyl]piperazin-1-yl]-3-pyridyl]-1H-pyrrolo[2,3-b]pyridine-3-carbonyl]-2,4-difluoro-phenyl]propane-2-sulfonamide]	9.59	2.65	–
CCN(C)S(=O)(=O)Nc1ccc(F)c(C(=O)c2c[nH]c3ncc(-c4cnc(N5CCN(C(=O)CN6CCN(c7ccc(NC8CCC(=O)NC8=O)cc7)CC6)CC5)nc4)cc23)c1F (centres unmarked) [Example 19, 5-[2-[4-[2-[4-[4-[(2,6-dioxo-3-piperidyl)amino]phenyl]piperazin-1-yl]acetyl]piperazin-1-yl]pyrimidin-5-yl]-3-[3-[[ethyl(methyl)sulfamoyl]amino]-2,6-difluoro-benzoyl]-1H-pyrrolo[2,3-b]pyridine]	8.57	–	11.26
CCN(C)S(=O)(=O)Nc1ccc(F)c(C(=O)c2c[nH]c3ncc(-c4cnc(N5CCN(C(=O)CN6CCC(c7ccc(NC8CCC(=O)NC8=O)cn7)CC6)CC5)nc4)cc23)c1F (centres unmarked) [Example 21, 5-[2-[4-[2-[4-[5-[(2,6-dioxo-3-piperidyl)amino]-2-pyridyl]-1-piperidyl]acetyl]piperazin-1-yl]pyrimidin-5-yl]-3-[3-[[ethyl(methyl)sulfamoyl]amino]-2,6-difluoro-benzoyl]-1H-pyrrolo[2,3-b]pyridine]	7.1	11.9	–
CCN(C)S(=O)(=O)Nc1ccc(F)c(C(=O)c2c[nH]c3ncc(-c4cnc(N5CCN(C(=O)CN6CCC(c7ccc(N(C)C8CCC(=O)NC8=O)cc7)CC6)CC5)nc4)cc23)c1F (centres unmarked) [Example 22, 5-[2-[4-[2-[4-[4-[(2,6-dioxo-3-piperidyl)-methyl-amino]phenyl]-1-piperidyl]acetyl]piperazin-1-yl]pyrimidin-5-yl]-3-[3-[[ethyl(methyl)sulfamoyl]amino]-2,6-difluoro-benzoyl]-1H-pyrrolo[2,3-b]pyridine]	19.4	–	18.02
CCN(C)S(=O)(=O)Nc1ccc(F)c(C(=O)c2c[nH]c3ncc(-c4cnc(N5CCN(C(=O)CN6CCC(c7ccc(N8CCC(=O)NC8=O)cc7)CC6)CC5)nc4)cc23)c1F [Example 24, 5-[2-[4-[2-[4-[4-(2,4-dioxohexahydropyrimidin-1-yl)phenyl]-1-piperidyl]acetyl]piperazin-1-yl]pyrimidin-5-yl]-3-[3-[[ethyl(methyl)sulfamoyl]amino]-2,6-difluoro-benzoyl]-1H-pyrrolo[2,3-b]pyridine]	5.59	–	7.88
CCN(C)S(=O)(=O)Nc1ccc(F)c(C(=O)c2c[nH]c3ncc(-c4cnc(N5CCN(C(=O)CN6CCC(Nc7ccc8c(C9CCC(=O)NC9=O)nn(C)c8c7)CC6)CC5)nc4)cc23)c1F (centres unmarked) [Example 28, 3-(2,6-dioxo-3-piperidyl)-6-[[1-[2-[4-[5-[3-[3-[[ethyl(methyl)sulfamoyl]amino]-2,6-difluoro-benzoyl]-1H-pyrrolo[2,3-b]pyridin-5-yl]pyrimidin-2-yl]piperazin-1-yl]-2-oxo-ethyl]-4-piperidyl]amino]-1-methyl-indazole]	5.81	12	–

Compounds with a lower DC50, results first:

DC50 [nM]	Emax [%]	HiBit 24 h Emax [%]	Compound
4.45	8.46	–	CC(C)S(=O)(=O)Nc1ccc(F)c(C(=O)c2c[nH]c3ncc(-c4cnc(N5CCN(C(=O)CN6CCC(c7ccc8c(N9CCC(=O)NC9=O)nn(C)c8c7)CC6)CC5)nc4)cc23)c1F [Example 10, N-[3-[5-[2-[4-[2-[4-[3-(2,4-dioxohexahydropyrimidin-1-yl)-1-methyl-indazol-6-yl]-1-piperidyl]acetyl]piperazin-1-yl]pyrimidin-5-yl]-1H-pyrrolo[2,3-b]pyridine-3-carbonyl]-2,4-difluoro-phenyl]propane-2-sulfonamide]
2.85	–	7.93	CCN(C)S(=O)(=O)Nc1ccc(F)c(C(=O)c2c[nH]c3ncc(-c4cnc(N5CCN(C(=O)CN6CCC(c7ccc(NC8CCC(=O)NC8=O)cc7)CC6)CC5)nc4)cc23)c1F (centres unmarked) [Example 18, 5-[2-[4-[2-[4-[4-[(2,6-dioxo-3-piperidyl)amino]phenyl]-1-piperidyl]acetyl]piperazin-1-yl]pyrimidin-5-yl]-3-[3-[[ethyl(methyl)sulfamoyl]amino]-2,6-difluoro-benzoyl]-1H-pyrrolo[2,3-b]pyridine]
3.63	6.36	–	CCN(C)S(=O)(=O)Nc1ccc(F)c(C(=O)c2c[nH]c3ncc(-c4cnc(N5CCN(C(=O)CN6CCC(c7ccc(N[C@H]8CCC(=O)NC8=O)cc7)CC6)CC5)nc4)cc23)c1F [Example 25, 5-[2-[4-[2-[4-[4-[[(3S)-2,6-dioxo-3-piperidyl]amino]phenyl]-1-piperidyl]acetyl]piperazin-1-yl]pyrimidin-5-yl]-3-[3-[[ethyl(methyl)sulfamoyl]amino]-2,6-difluoro-benzoyl]-1H-pyrrolo[2,3-b]pyridine]
4.55	7	–	CCN(C)S(=O)(=O)Nc1ccc(F)c(C(=O)c2c[nH]c3ncc(-c4cnc(N5CCN(C(=O)CN6CCC(c7ccc(N[C@@H]8CCC(=O)NC8=O)cc7)CC6)CC5)nc4)cc23)c1F [Example 26, 5-[2-[4-[2-[4-[4-[[(3R)-2,6-dioxo-3-piperidyl]amino]phenyl]-1-piperidyl]acetyl]piperazin-1-yl]pyrimidin-5-yl]-3-[3-[[ethyl(methyl)sulfamoyl]amino]-2,6-difluoro-benzoyl]-1H-pyrrolo[2,3-b]pyridine]
2.09	10.8	–	CCN(C)S(=O)(=O)Nc1ccc(F)c(C(=O)c2c[nH]c3ncc(-c4cnc(N5CCN(C(=O)CN6CCC(c7ccc8c(C9CCC(=O)NC9=O)nn(C)c8c7)CC6)CC5)nc4)cc23)c1F (centres unmarked) [Example 27, 3-(2,6-dioxo-3-piperidyl)-6-[1-[2-[4-[5-[3-[3-[[ethyl(methyl)sulfamoyl]amino]-2,6-difluoro-benzoyl]-1H-pyrrolo[2,3-b]pyridin-5-yl]pyrimidin-2-yl]piperazin-1-yl]-2-oxo-ethyl]-4-piperidyl]-1-methyl-indazole]
